Assay results taken from the pKa sets of Baltruschat and Czodrowski (2020).

Conditions: acidic group

| SMILES | pKa |
| --- | --- |
| CCOC(=O)C(Cc1ccc([N+](=O)[O-])cc1)C(C)=O (centres undefined) | 11.1 |
| Oc1ccc(Cl)cc1C[NH+]1CCCC1 | 8.3 |
| CSc1nc2cc3c(cc2[nH]1)CCCC3 | 13 |
| Cc1n[nH]c(C)c1[N+](=O)[O-] | 10.3 |
| CC(C)=C(C(N)=O)C(=O)O | 3.95 |
| Cc1c(I)cccc1C(=O)O | 3.26 |
| Cc1ncsc1C(=O)O | 3.54 |
| Cc1ccc(OC(O)(CBr)c2ccccc2)cc1 (centres undefined) | 11.2 |
| C[n+]1ccc2cccc(O)c2c1 | 5.81 |
| CCC1=CC(=O)C=C(CC)C1=NO | 8.34 |
| COCC1=C(C(=O)O)CCC1 | 4.5 |
| CCCC[Se](=O)O | 5.29 |
| CCCNC(O)=S | 0.52 |
| CC(=O)/C(C[NH+]1CCCCC1)=N\O | 7.05 |
| C/C(=N/O)c1cc(C)c(C)cc1O | 8.2 |
| CC(=O)[C@H]1CC=CC[C@@H]1C(=O)O | 4.4 |
| C[n+]1cccc2cc(O)ccc21 | 7.15 |
| Oc1ccc2cc3ccccc3cc2c1 | 9.92 |
| C[N+]1(CCCCCC(=O)O)CCCCC1 | 4.44 |
| O=[N+]([O-])c1cccc(/C=N/O)c1 | 10.2 |
| Cc1ccc(O)c(Cc2cc([N+](=O)[O-])ccc2[O-])c1 | 11.5 |
| O=C([O-])[C@H](NCC[NH2+][C@@H](C(=O)[O-])c1ccccc1O)c1ccccc1O | 8.79 |

| SMILES | pKa |
| --- | --- |
| CC(O)C(C(=O)O)c1ccc(C2CCCCC2)cc1 (centres undefined) | 4.21 |
| C[N+](C)(C)c1cc([N+](=O)[O-])ccc1O | 4.35 |
| O=C1C=C(S(=O)(=O)[O-])c2[nH]ncc2/C1=N/O | 7.75 |
| Cc1ccc(C(=O)/C=C/C(=O)O)cc1 | 3.44 |
| CC(C(=O)O)c1ccc(-c2ccccc2)c(F)c1 (centres undefined) | 4.22 |
| CCCCN(C(=O)c1cc([N+](=O)[O-])ccc1O)c1ccc(/N=N/c2ccc3c(c2)OCCOCCOCCOCCOCCO3)cc1 | 6.3 |
| Cc1cccc([NH3+])c1C(=O)O | 3.2 |
| O=S(Cc1ccccc1)c1ncn[nH]1 (centres undefined) | 7.38 |
| COc1ccc(NS(=O)(=O)c2ccccc2)cc1 | 8.88 |
| N#CC(C#N)=NNc1cccc(Cl)c1 | 6 |
| O=c1cnn([C@H]2O[C@@H](CO)[C@H](O)[C@@H]2O)c(=O)[nH]1 | 6.6 |
| CSc1cccc(O)c1 | 9.47 |
| O=C(O)CCc1ccc([N+](=O)[O-])cc1 | 4.54 |
| COc1ccc2c(c1)[nH]c1c(C)nccc12 | 13.5 |
| CC(C)(/C=C/C(=O)O)c1cc(Br)ccc1O | 4.46 |
| O=C(O)C12CCC(O)(CC1)CC2 | 6.33 |
| Oc1ccc(O)[nH+]n1 | -2.2 |
| CC(=O)c1cccc(NS(=O)(=O)C(F)(F)F)c1 | 3.75 |
| O=S(=O)(Nc1ccc(Br)cc1)c1ccccc1 | 7.78 |
| Cc1ccc(C(=O)O)[nH]1 | 5 |
| CCc1c(-c2ccccc2)nn(C2CC[NH+](C)CC2)c1O | 5.9 |
| CCc1cc(C(C)C)ccc1O | 10.8 |

| SMILES | pKa |
| --- | --- |
| CCCC(C)C1(CC)C(=O)NC(=O)NC1=O (centres undefined) | 8.08 |
| CC(C)[C@H]1C[NH2+][C@H](C(=O)[O-])[C@H]1CC(=O)O | 4.23 |
| CCC(=O)c1cc(C(=O)c2ccccc2)n[nH]1 | 9.14 |
| CC(=S)NCc1ccccc1 | 13 |
| N#CC(C#N)=NNc1cccc(O)c1 | 6.45 |
| Cc1cccc(/C=C/C(=O)O)c1 | 4.44 |
| O=C([O-])c1cc2ccccc2cc1O | 12.2 |
| C[n+]1ccc(O)nc1 | 1.91 |
| O=C1COC(=O)N1 | 5.84 |
| O=C(O)C#COc1ccccc1 | 3.09 |
| CC(=O)NS(=O)(=O)c1ccc(N)cc1 | 5.35 |
| O=C(O)[C@@H]1C[C@@H](O)C[NH2+]1 | 1.92 |
| CCOCCn1c(N2CCC[NH+](CCCCn3cc(C(=O)O)cn3)CC2)[nH+]c2ccccc21 | 3.7 |
| O=C(/C(=N\O)c1ccccc1)c1ccccc1 | 10 |
| Brc1ccc(-c2nnn[nH]2)cc1 | 3.73 |
| O=C(NOC(=O)c1ccccc1)c1ccccc1 | 6 |
| O=C(O)[C@@H]1O[C@H](Oc2ccc3[nH+]c(O)ccc3c2)[C@@H](O)[C@H](O)[C@H]1O | 3.07 |
| CC(=O)[n+]1ccc(N(C)C)cc1 | 9.55 |
| N#CC(C#N)Cc1ccc(Cl)cc1 | 11.5 |
| Cc1ccc(Br)cc1C(=O)O | 3.58 |
| CCc1cc(CC)c(OC)c(C(=O)NC[C@H]2CCC[NH+]2CC)c1O | 7.24 |
| CSc1ccccc1C(=O)O | 3.89 |

| SMILES | pKa |
| --- | --- |
| Cc1ccc(O)c(Cc2cc(C)cc([N+](=O)[O-])c2[O-])c1 | 11.7 |
| O=C(O)c1cc(-c2ccccc2)n[nH+]c1NCC[NH+]1CCOCC1 | 1.1 |
| CNC(=O)c1ncnc2nc[nH]c12 | 8.9 |
| Oc1ccc(O)c2ncccc12 | 9.3 |
| CN(C)c1nc(/N=N/O)nn1C | 5.94 |
| O=C1CCCC(=O)N1 | 11.4 |
| N/N=C(\N)c1ncnc2nc[nH]c12 | 10 |
| O=c1ccn([C@@H]2C[C@@H](O)[C@H](CO)O2)c(=O)[nH]1 | 9.3 |
| O=C(O)C1=C(CO)CCC1 | 4.54 |
| Cc1ccc(/C=C/C(=O)C(=O)O)cc1 | 1.96 |
| CN(C)C(=O)CC(=O)c1ccncc1 | 7.75 |
| O=C(O)C[C@]1(O)C[C@H]2C=C[C@@H]1C2 | 4.36 |
| CC(=O)Oc1cccc2cccc(O)c12 | 9.69 |
| COP(=O)(O)NS(C)(=O)=O | 1.16 |
| NC1=NS(=O)(=O)[N-]c2nc[nH]c21 | 12.2 |
| Cc1cccc(O)c1 | 10 |
| CC(C)Oc1ccccc1C(=O)O | 4.24 |
| CN(C)Cc1cc(CC(C)(C)C)ccc1O | 11.5 |
| CC1=CC(=O)CC(=O)O1 | 5 |
| O=C(O)c1c[nH]c2ccccc12 | 5.27 |
| Cc1[nH]c(C(=O)[O-])c(C(=O)O)[nH+]1 | 4.54 |

Same assay, conditions: basic group

| SMILES | pKa |
| --- | --- |
| Cc1ccc(CON)cc1 | 4.4 |
| N[C@H]1CCCC[C@@H]1O | 9.35 |
| COCCN(C)c1ccccc1 | 4.81 |
| CSc1nc2cc3c(cc2[nH]1)CCCC3 | 5 |
| CCOCCn1c(N2CCC[NH+](CCCCn3cccn3)CC2)nc2ccccc21 | 4.9 |
| Nc1nsc2ccccc12 | 2.45 |
| Cc1n[nH]c(C)c1[N+](=O)[O-] | -0.22 |
| CC1=C(CC(C)NCC(O)c2ccc(N)cc2)CCC1(C)C (centres undefined) | 9.01 |
| O=C([O-])CCc1c[nH]cn1 | 7.55 |
| NCCCCCC#CC#CCCC(=O)[O-] | 10.7 |
| N[C@@H](Cc1nc(I)[n-]c1I)C(=O)[O-] | 9.76 |
| COc1ccc(S(=O)(=O)NCCN2CCOCC2)c(OC)c1OC | 6.16 |
| c1c(CN2CC[NH2+]CC[NH2+]CC2)n[nH]c1CN1CCNCC[NH2+]CC1 | 6.08 |
| c1cncc(-c2cccnc2)c1 | 4.6 |
| O=C([O-])[C@H](NCC[NH2+][C@@H](C(=O)[O-])c1ccccc1O)c1ccccc1O | 6.33 |
| Cc1cnn(C)c1C | 3.58 |
| Nc1ccc(-c2ccccc2)cc1 | 4.38 |
| CC(C)(C)c1cccc(C(C)(C)C)n1 | 4.95 |
| Cc1cc(-c2[nH]cc[nH+]2)n[nH]1 | 1.5 |
| c1ccc(C2=NCCN2)nc1 | 8.98 |
| CCNCC(=O)[O-] | 10.2 |
| CCN(CC)CCC(=O)Nc1c(C)cccc1C | 8.96 |
| O=[N+]([O-])c1cc(CN2CCOCC2)c([O-])c2ccccc12 | 7.98 |
| N#CC(C#N)=NNc1cccc(Cl)c1 | -0.78 |
| Nc1ccc2cc3ccc(Cl)cc3nc2c1 | 7.26 |
| O=[N+]([O-])c1ccc(C2NCCS2)cc1 (centres undefined) | 4.55 |

| SMILES | pKa |
| --- | --- |
| CCN(CC)CCN | 9.93 |
| CC(C)N | 10.6 |
| CNC(=O)/C=C(\c1ccc2nc(N)n(C3CCCC3)c2c1)c1ccccc1F | 6.7 |
| Nc1ncc(S(=O)(=O)c2ccccc2)s1 | 1.79 |
| CNc1nc(NC)c2cn[nH]c2n1 | 6.08 |
| CC(C)NCCCCCC[NH2+]C(C)C | 10.9 |
| O=C([O-])CSc1nc2cc3ccccc3cc2[nH]1 | 4.68 |
| COc1ccc2c(c1)[nH]c1c(C)nccc12 | 7.73 |
| CN(C)Cc1ccccc1 | 8.97 |
| CN(C)c1ccc(Cl)cc1 | 4.39 |
| CCOC(=O)[C@H](C)N | 7.8 |
| Cc1ccc(N)cc1-c1cc(N)ccc1C | 5 |
| CC[NH+](CC)CCNc1nc(C)cc(Nc2ccc(Cl)cc2)n1 | 6.69 |
| Nc1ccc(-c2nc3ccccc3s2)cc1 | 3 |
| C(CN1CCOCC1)CN1CCOCC1 | 7.25 |
| COc1ccc2c(c1)CCN2 | 6.1 |
| COc1c(C)cccc1C(=O)N[C@@H]1C[C@H]2CC[C@@H](C1)N2Cc1ccccc1 | 8.92 |
| CC1/C(=N\O)C[C@@H]2N=C(c3ccccc3)O[C@@]13[C@@H]1OC(=O)[C@H](C)[C@H]1CC[C@]23C (some centres undefined) | 4.65 |
| C[NH+](C)c1ccc(/N=N/c2ccncc2)cc1 | 3.4 |
| OCc1ccccn1 | 4.66 |
| CC(CC(O)(c1ccccc1)c1ccccc1)N1CCCCC1 (centres undefined) | 8.62 |
| Cc1cc(C(c2ccc(N)cc2)c2ccc(N)cc2)ccc1[NH3+] | 3.8 |
| Nc1ccncc1F | 4.77 |
| Cn1c2c(s/c1=N\N)CCCC2 | 8.2 |
| Cc1cc([S-])[nH+]cn1 | 1.8 |
| Cc1c(Cn2ccnc2)sc2cc(C(=O)[O-])ccc12 | 6.04 |

| SMILES | pKa |
| --- | --- |
| C=CC(=O)NC(C)(C)CCN(CC)CC | 10.1 |
| CC(=O)NS(=O)(=O)c1ccc(N)cc1 | 1.58 |
| CN1CC=CCN1C | 5.7 |
| Cc1cnc2c(C)ccc([N+](=O)[O-])c2c1NCCC[NH+](C)C | 6.1 |
| N/C(=N\O)c1ccccc1 | 4.97 |
| Oc1ccc(Cl)c2cccnc12 | 3.68 |
| CCCNC(C)C | 11 |
| CN(C)[C@H]1CCCC[C@@H]1O | 10.4 |
| Cc1ccccc1C(=NCCC[NH+](C)C)c1ccccc1C | 4.3 |
| COc1nc2ccccc2c2ccccc12 | 2.38 |
| Cc1n[nH]c2cc(N)ccc12 | 4 |
| Oc1ccc(O)c2ncccc12 | 4.5 |
| CCCCc1ccccc1N | 4.26 |
| CN[C@H]1C[C@]1(C)NC | 9.05 |
| CS(=O)C(C)(C)C (centres undefined) | -1.71 |
| O=C(Nc1cccnc1)c1ccccc1 | 3.8 |
| c1ccc(CN(CC2CO2)CC2CO2)cc1 (centres undefined) | 5.75 |
| C[N+](C)(C)CCN | 7.34 |
| CC[NH+](CC)CCCC(C)Nc1cc(OC)cc2ccc[nH+]c12 (centres undefined) | -1.33 |
| CCCNC(=O)[C@H](Cc1c[nH]cn1)NC(=O)c1cccc(CNCC[NH3+])n1 | 6.5 |
| CC[NH+](CC)CCCNc1ccnc2ccccc12 | 8.65 |
| Clc1cc(-c2ccccc2)nnc1NCCN1CCOCC1 | 6.64 |
| Cc1c2ccccc2c(CN2CCOCC2)c2ccccc12 | 6.6 |
| CCOC(=O)CCCCCN | 10.4 |
| NCc1ccc(Cl)c(N)c1 | 9.33 |
